Molecules are shown by their SMILES.

Results on 9 compounds are retold here after patent US20220106304A1, “Transcription Factor BRN2 Inhibitory Compounds as Therapeutics and Methods for Their Use” (The University of British Columbia, priority 2018, published 2022).

For data set [1], the target named is T1, BRN2 (Homo sapiens, UniProt P20265).
T1 sequence (P20265 1-443): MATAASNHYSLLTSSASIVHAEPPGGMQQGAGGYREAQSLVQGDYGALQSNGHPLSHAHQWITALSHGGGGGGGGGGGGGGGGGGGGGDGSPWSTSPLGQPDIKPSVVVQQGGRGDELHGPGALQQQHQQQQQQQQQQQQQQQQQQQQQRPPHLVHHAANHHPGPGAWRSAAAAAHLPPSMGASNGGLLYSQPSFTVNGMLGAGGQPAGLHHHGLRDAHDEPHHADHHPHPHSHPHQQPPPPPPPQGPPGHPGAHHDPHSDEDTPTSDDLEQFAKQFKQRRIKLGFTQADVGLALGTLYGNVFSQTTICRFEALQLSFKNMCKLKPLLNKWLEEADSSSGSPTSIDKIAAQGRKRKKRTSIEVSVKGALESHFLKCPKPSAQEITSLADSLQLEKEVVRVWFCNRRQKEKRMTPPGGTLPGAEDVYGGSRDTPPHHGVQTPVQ
The data set is described as follows: cell-based. Conditions: negative = activation; for inhibition at 10 µM: read-out: % BRN2 Inhibition (10 μM), 10 μM compound, 24 hours, 42D^ENZR cells stably expressing BRN2-luciferase reporter; for inhibition at 30 µM: read-out: % BRN2 Inhibition (30 μM), 30 μM compound, 24 hours, 42D^ENZR cells stably expressing BRN2-luciferase reporter.

For data set [2], the system named is 42D^ENZR cells vs 16D^CRPC cells. The data set is described as follows: Cell proliferation specificity, 42D^ENZR cells vs 16D^CRPC cells. The data set is classed as cell-based. Conditions: 42D cells express BRN2, 16D cells do not; some also LNCaP; result in words. As for the experimental part: (§1) Plate 42DENZR (˜7000 cells per well) and 16D^CRPC (˜5000 cells per well) cells in 96 well plate with a volume of 100 μL per well. • 2. Next day 1 mL aliquots of media are combined with 3× the desired concentration of compounds. The aliquots are vortexed and 50 μL of each 3× concentration is added to the 100 μL of media in each well to give the ix desired concentration.
(§2) The following are the desired concentrations:
(§3) 0, 10 nM, 100 nM, 500 nM, 1 μM, 2.5 μM, 5 μM, 10 μM, 15 μM, […], 30 μM. • 3. Approximately 72 hours later, 17 μL of 10% Glutaraldehyde is added to each well and plates are placed on a shaker for 20-30 minutes. • 4. Media is washed off the fixed cells by slow submersion in a container of water. Then the water is removed by tapping the plate upside down. • 5. 75 μL of Crystal Violet™ solution is added into the 96 well plates and placed on a shaker for ˜30 minutes. • 6. Media is washed off the fixed cells by repeated slow submersion in a container of water and the plates are allowed to dry over-night. • 7. Next day, 75 μL of Sorensen Solution is accurately pipetted into each well. The plates placed on a shaker for ˜30 minutes. • 8. Absorbance is measured in the plate at 590 nm.
Compounds that Show Specificity Towards 42D^ENZR Cells Vs 16D^CRPC Cells Progress to Step 4.
Where data is not available “na” is inserted.

The nature of data set [3]: Liver microsome metabolic stability, MLM. Conditions: MLM (single value or second of two), 1 μM compound, 0.25 mg/mL protein; for Met Stab % (60 mins HLM/MLM): percent remaining at 60 min, 1 mM NADPH; for half-life at 1 µM: mouse, liver microsomes, pH 7.4, read-out: T1/2 in (mins HLM/MLM). The class given is in vitro ADME. The method, boiled down:
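Compound (1 μM) incubated at 37 °C with mouse or human liver microsomes (0.25 mg/mL) in 50 mM phosphate pH 7.4 with 1 mM NADPH; samples quenched at 0–60 min. Parent loss by LC-MS/MS gives t½ (0.693/k) and CL'int scaled by 45 mg protein/g liver.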

Data set [4] has as its system 42D^ENZR cells. The data set is described as follows: Cell proliferation (crystal violet), BRN2 expressing 42D^ENZR cells. The class given is cell-based. Conditions: 42D cells, approximately 72 hours. How it is done: as §1, §2, §3

As for `c1coc(-c2ncc(-c3cc4ccccc4o3)s2)c1` [VPC-18-90, 5-(benzofuran-2-yl)-2-(furan-2-yl)thiazole], in data set [1], the inhibition at 10 µM is 80% and the inhibition at 30 µM was 92%. Further, in data set [2], the specificity entry is given as “VPC-18-90 (specific)”. For the same compound, in data set [3], the “Met Stab % (60 mins HLM/MLM)” value worked out at 0% and the half-life at 1 µM was 8 min.

Regarding `Clc1ccc2cc(-c3csc(-c4ccc[nH]4)n3)oc2c1` [VPC-18-94, 4-(6-chlorobenzofuran-2-yl)-2-(1H-pyrrol-2-yl)thiazole], in data set [1], the inhibition at 10 µM amounted to 79.6% and the inhibition at 30 µM amounted to 86.9%. For the same compound, in data set [2], the specificity result is “VPC-18-94 (specific no effect on LNCaP and 16D)”. For the same compound, in data set [3], the “Met Stab % (60 mins HLM/MLM)” value stood at 21% and the half-life at 1 µM turned out to be 27 min.

For `FC(F)(F)c1ccc2cc(-c3csc(-c4ccoc4)n3)oc2c1` [VPC-18-104, 2-(furan-3-yl)-4-(6-(trifluoromethyl)benzofuran-2-yl)thiazole], in data set [1], the inhibition at 10 µM turned out to be 87.1% and the inhibition at 30 µM is 94.2%. Moreover, the specificity result in data set [2] is listed as “VPC-18- 104 (specific 42D not 16D)”. For the same compound, in data set [3], the “Met Stab % (60 mins HLM/MLM)” value is on record as 1% and the half-life at 1 µM turned out to be 10 min.

Turning to `Clc1ccc2cc(-c3csc(-c4ccoc4)n3)oc2c1` [VPC-18-105, 4-(6-chlorobenzofuran-2-yl)-2-(furan-3-yl)thiazole], in data set [1], the inhibition at 10 µM stood at 79.5% and the inhibition at 30 µM came to 92%. Also, the specificity result in data set [2] is reported as “VPC-18- 105 (specific 42D not 16D)”. For the same compound, in data set [3], the “Met Stab % (60 mins HLM/MLM)” value amounted to 1% and the half-life at 1 µM came out at 10 min.

For the compound `FC(F)(F)c1ccc2cc(-c3csc(-c4ccc[nH]4)n3)oc2c1` [VPC-18-108], in data set [1], the inhibition at 10 µM came to 84.4% and the inhibition at 30 µM worked out at 92.6%. Moreover, the specificity entry in data set [2] is listed as “VPC-18- 108 (specific)”. Besides, in data set [3], the “Met Stab % (60 mins HLM/MLM)” value turned out to be 15% and the half-life at 1 µM stood at 31 min.

For `Cc1ccc2cc(-c3csc(-c4ccco4)n3)oc2c1` [VPC-18-110, 2-(furan-2-yl)-4-(6-methylbenzofuran-2-yl)thiazole], in data set [1], the inhibition at 10 µM was 93.5% and the inhibition at 30 µM amounted to 98.6%. The specificity entry in data set [2] is “VPC-18- 110 (specific)”. In data set [3], the “Met Stab % (60 mins HLM/MLM)” value came to 1% and the half-life at 1 µM came to 10 min.

Take `Clc1ccc2cc(-c3csc(-c4cc[nH]c4)n3)oc2c1` [VPC-18-115]: in data set [1], the inhibition at 10 µM is 98% and the inhibition at 30 µM turned out to be 99%. Also, the specificity result in data set [2] is on record as “VPC-18- 115 (specific)”. In data set [3], the “Met Stab % (60 mins HLM/MLM)” value amounted to 18% and the half-life at 1 µM turned out to be 22 min.

On to `Clc1ccc2cc(-c3cccc(-c4ccc[nH]4)n3)oc2c1` [VPC-18-149], for which, in data set [1], the inhibition at 10 µM is 94.6% and the inhibition at 30 µM is 96.2%. In addition, the specificity result in data set [2] is recorded as “not 16D”. Further, in data set [3], the “Met Stab % (60 mins HLM/MLM)” value came out at 21% and the half-life at 1 µM was 30 min. The IC50 in data set [4] is 1 µM.

`Cc1c(-c2csc(-c3ccc[nH]3)n2)oc2cc(Cl)ccc12` [VPC-18-155]: in data set [2], the specificity entry is reported as “not 16D”. Moreover, in data set [3], the “Met Stab % (60 mins HLM/MLM)” value worked out at 24% and the half-life at 1 µM amounted to 31 min. The IC50 in data set [4] came to 10 µM.
